Experimental data taken from patent publication US20240390396A1 (priority 2021, published 2024).
Where “and” joins values, the source holds several entries; their conditions need not be identical. Identical values can stand only once. Like-named read-outs stand apart in the source and are kept apart here.

Experiments:
MCF7 cells = assay type: cell-based; settings: 24 h; cannabis containing 4 μM CBD; 32 μM capsazepine; 400 μM capsaicin; 5 μM thapsigargin; alone or combined
T47D cells = assay type: cell-based; settings: 24 h; cannabis containing 4 μM CBD; 32 μM capsazepine; 400 μM capsaicin; 5 μM thapsigargin; alone or combined
MDA-MB-231 cells = settings: 24 h
RAW 264.7 macrophages = experiment: Nitric oxide (NO) secretion by LPS-activated macrophages (Griess reagent); assay type: cell-based; settings: for effect of ECS receptor antagonists alone on NO secretion: 24 h (FIG. 5B)
Method: NO secretion was determined by measuring the amount of nitrite, using a Griess reagent (Promega) according to manufacturer's protocol. Briefly, 50 μl of supernatant was added to 96-well plate, followed by 50 μl sulphanilamide and 50 μl N−1-napthylethylenediamine dihydrochloride (NED). The optical densities were quantified using a multi-well spectrophotometer, and nitrite concentrations were estimated using a standard nitrite curve. Results were calculated as the percentage of control cultures.
The poor bioavailability of CBD may hamper its effectiveness as an anti-inflammatory drug. To test whether antagonists of the ECS may potentiate the anti-inflammatory effect of CBD, the inventors used the RAW 264.7 macrophages as a model system for inflammation. Exposure of cells to bacterial lipopolysaccharide (LPS) initiates a signal transduction cascade that leads to increased production of nitrite oxide (NO), secretion of pro-inflammatory cytokines, and acquisition of enhanced bactericidal activity.
First, the inventors studied the response of LPS-activated RAW 264.7 cells to CBD. Cells were cultured with LPS, with/without CBD at 0.63-5 μM concentrations for 24 hrs. Supernatants were harvested for measuring NO by spectrophotometry using the Greiss reagent. […] To test whether antagonists of the ECS can modify the anti-inflammatory activity of CBD, the inventors further exposed the cells to LPS, CBD, ECS antagonists (detailed in Table 2), and their combinations. Two distinct CB2 antagonists (AM630 and COR170) were tested, as CB2 is known to be involved in the regulation of inflammation.

MDA-MB-468 cells = assay type: cell-based; settings: 24 h; 1:2 dilution of the original doses: cannabis containing 2 μM CBD; 16 μM capsazepine; capsaicin and thapsigargin diluted 1:2 from 400 μM and 5 μM; alone or combined
[1] = cannabis containing 4 μM CBD, 400 μM capsaicin, 5 μM thapsigargin, alone or combined

In the case of `C/C=C(/C)C(=O)O[C@H]1C(C)=C2[C@H]([C@@H]1OC(=O)CCCCCCC)[C@@](C)(OC(C)=O)C[C@H](OC(=O)CCC)[C@@]1(O)[C@H]2OC(=O)[C@@]1(C)O` [thapsigargin], the cell survival (MCF7 cells) is reported as 24±6%, the cell survival (T47D cells) is reported as 72±7% and the cell survival (MDA-MB-231 cells; [1]) is reported as 34±23%.
`C=C(C)[C@@H]1CCC(C)=C[C@H]1c1c(O)cc(CCCCC)cc1O` [CBD, cannabidiol] was tested, and the “NO secretion, dose response” value (RAW 264.7 macrophages; 24 h, CBD 0.63-5 μM (FIG. 5A)) was “reduced NO secretion in a dose dependent manner”, the activity at 2.5 µM (RAW 264.7 macrophages; Mus musculus, RAW264.7, 24 h, 2.5 μM CBD, with or without 10 μM capsazepine, read-out: NO secretion, % of control cells treated with vehicle (DMSO)) was 6 ± 5% and the cell survival (MDA-MB-231 cells; 2.5 μM pure CBD, with or without 32 μM capsazepine (FIG. 1D)) was 72±13%.
Work on `Oc1cc2c(cc1O)CN(C(=S)NCCc1ccc(Cl)cc1)CCC2` [capsazepine] yielded a cell survival (MCF7 cells) of 40±7%, a cell survival (T47D cells) of 37±21% and a cell survival (MDA-MB-468 cells) of 80±9%. For the same molecule, the “effect of ECS receptor antagonists alone on NO secretion” value (RAW 264.7 macrophages) was “mild effect on NO secretion” and the “effect of ECS receptor antagonist on cytotoxic activity of cannabis” value (MDA-MB-231 cells; co-treatment with CBD-enriched cannabis (FIG. 1B)) was “enhanced the cytotoxic effect of cannabis”.
`CCC(=O)NC[C@H](Cc1ccc(OCCc2nc(-c3ccccc3)oc2C)cc1)N/C(C)=C\C(=O)c1ccc(C(F)(F)F)cc1` [GW6471] was tested, and the “effect of ECS receptor antagonists alone on NO secretion” value (RAW 264.7 macrophages) was “mild effect on NO secretion”.
With `COc1cc(CNC(=O)CCCC/C=C/C(C)C)ccc1O` [capsaicin] the cell survival (MCF7 cells) was 19±9%, the cell survival (T47D cells) was 39±11% and the cell survival (MDA-MB-468 cells) was 60±11% and 62±9%. The cell survival (MDA-MB-231 cells; [1]) was 34±25%.
